In patent US20070167329A1, “Plant growth regulation” (Bayer CropScience GmbH, priority 2003, published 2007):

Experiments:
[1] = system: maize (Zea mays, variety "LORENZO"); experiment: Root growth assay, seed treatment, maize; assay type: in vivo; conditions: for Root Growth (Root Growth of "100" is set as the standard): wet root weight 16 (±2) days post treatment; for effect as plant growth regulator in maize: result in words
Source text: (§1) Plant roots are a highly proliferative tissue that allows an easy accessible, cheap and short term screening method for plant growth regulators. The results obtained can easily be transferred to the overall effects on a plant of plant growth regulators identified by such a system. By using this root assay one is enabled to determine the effect of a seed treatment to root growth and/or germination and/or changes in habitat of germinated plants in order to identify the possible use as a yield enhancer. Two seeds of wheat (Triticum aestivum, variety “TRISO”) or 1 seed of maize (Zea mays, variety “LORENZO”) per hole in a plastic tray which contains an architecture of 8×13 holes were placed on compost soil covered with sand. These seeds were treated with 100 μl/hole, which creates an application volume of approx. 1200 l/ha, of a compound solution at active ingredient rates equivalent to 100, 10 and 1 g a.i./ha of each compound using an robotic application system (Lizzy Spray Robotics). Six replicates in a row of each compound and concentration were done. The outer rim of the above defined plastic tray was untreated to avoid false negative effects and the middle row (No. 7) was used as untreated control. The treated seeds were allowed to dry for approx. 4 hours and subsequently covered with sand and watered. The trays were stored in climate chambers with 14 hours lighting at a temperature of 24° C. (±2) at daytime and 16° C. (±2) at night and relative humidity (rH) of 60% and daily watered. Assessments were done 16 (±2) days post treatment by counting the germinated plants and assessing the phytotoxicity symptoms and percentage. In addition, the roots were washed out and the shoots were cut directly above the seed and the wet roots were placed on dry paper towels for approximately 30 minutes and weighted afterwards. This procedure provides a similar grade of moisture to the roots so that a comparison of the weights is possible.
(§2) The effects observed concerning Root Growth given in column 2 (Root Growth of “100” is set as the standard) are directed to concentrations that are equivalent to 100, 10, 1 g a.i./ha, each.

[2] = system: wheat (Triticum aestivum, variety "TRISO"); experiment: Root growth assay, seed treatment, wheat; assay type: in vivo; set-up: key to Root Growth (Root Growth of "100" is set as the standard): relative root growth; 100 = standard (untreated control); conditions: for Root Growth (Root Growth of "100" is set as the standard): wet root weight 16 (±2) days post treatment; for effect as plant growth regulator in wheat: result in words, at various/different concentrations
Source text: as §1, §2

| SMILES | Root Growth (Root Growth of "100" is set as the standard) ([1]; 1 g a.i./ha) | Root Growth (Root Growth of "100" is set as the standard) ([1]; 10 g a.i./ha) | Root Growth (Root Growth of "100" is set as the standard) ([1]; 100 g a.i./ha) | effect as plant growth regulator in maize [1] | Root Growth (Root Growth of "100" is set as the standard) ([2]; 1 g a.i./ha) | Root Growth (Root Growth of "100" is set as the standard) ([2]; 10 g a.i./ha) | Root Growth (Root Growth of "100" is set as the standard) ([2]; 100 g a.i./ha) | effect as plant growth regulator in wheat [2] | melting point |
| --- | --- | --- | --- | --- | --- | --- | --- | --- | --- |
| Nc1nc(Nc2ccccc2)sc1C(=O)c1ccc(OC(F)F)cc1 [Compound 1.53] | 91 | 85 | 108 | superior effects | 125 | 107 | 101 | superior effects | – |
| Nc1nc(Nc2cccc(C(F)(F)F)c2)sc1C(=O)c1ccc(OC(F)F)cc1 [Compound 1.58] | 91 | 107 | 105 | superior effects | 123 | 112 | 103 | superior effects | – |
| Nc1nc(Nc2ccc(OC(F)(F)F)cc2)sc1C(=O)c1cccnc1 [Compound 1.118] | – | – | – | – | 95 | 122 | 113 | – | – |
| COc1ccc(Nc2nc(N)c(C(=O)c3cccnc3)s2)cc1 [Compound 1.106] | – | – | – | – | 145 | 99 | 90 | superior effect | – |
| CSc1ccc(Nc2nc(N)c(C(=O)c3cccnc3)s2)cc1 [Compound 1.117] | – | – | – | – | 111 | 126 | 125 | – | – |
| N#Cc1ccc(Nc2nc(N)c(C(=O)c3cccnc3)s2)cc1 [Compound 1.108] | – | – | – | – | 78 | 95 | 131 | superior effect | – |
| Nc1nc(Nc2ccccc2)sc1C(=O)c1cccnc1 [Compound 1.105] | – | – | – | – | 72 | 99 | 123 | superior effect | – |
| Nc1nc(NCC2CCCCC2)sc1C(=O)C(Cc1ccccc1)NC(=O)OCc1ccccc1 (stereo not shown) [Compound 1.139] | – | – | – | – | 130 | 66 | 120 | – | – |
| Nc1nc(Nc2cccnc2)sc1C(=O)c1ccc(OC(F)F)cc1 [Compound 1.60, [4-Amino-2-(pyridin-3-yl-amino)-thiazol-5-yl]-(4-difluoromethoxyphenyl)-methanone] | 191 | 105 | 109 | superior effect | 98 | 57 | 54 | – | 143 °C |
| Nc1nc(Nc2ccccc2)sc1C(=O)c1cccs1 [Compound 1.79] | 108 | 116 | 105 | superior effect | 88 | 88 | 73 | – | – |
